Experimental data from patent US9801850B2, “Antibacterial agent” (OSAKA UNIVERSITY, priority 2009, dated 2017).
In brackets after ≈: the same amount, converted by molar mass.

What was measured:
[1] = system: Methicillin-susceptible Staphylococcus aureus (MSSA) NCTC8325; assay: MIC, broth microdilution (Example 1); format: cell-based; conditions: MH-broth, 37° C., 18 hours
Description: (§1) Methicillin-susceptible Staphylococcus aureus (MSSA) NCTC8325 and methicillin-resistant Staphylococcus aureus (MRSA) ATCC43300 were used as bacteria. The bacteria of each type were cultured using Mueller-Hinton Broth (MH-broth, Difco) as a medium. Then, the minimum inhibitory concentration (MIC) of each of the EGCG derivatives was measured by a broth microdilution method in accordance with the Clinical and Laboratory Standards Institute (CLSI) guidelines (hereinafter the same).
(§2) First, each of the EGCG derivatives was dissolved in 100% dimethyl sulfoxide (DMSO, Wako Pure Chemical Industries, Ltd.) so that the concentration thereof became 5120 μg/ml. The resultant solution was diluted with DMSO or sterile distilled water so as to prepare two-fold dilution series of antibacterial agent solutions. […] Each of these antibacterial agent solutions was dispensed to wells of a 96-well plate. The concentration of the EGCG derivative in the antibacterial agent solution dispensed to the wells was set to be 10 times as high as the final concentration. On the other hand, the bacteria were cultured in the MH-broth at 37° C. overnight, and the thus-obtained pre-culture solution was diluted with a new MH-broth so that the concentration thereof in the MH-broth became 10^−4 (10^4-fold dilution), thus preparing a bacterial culture solution of about 1×10^5 CFU/ml (CFU: Colony Forming Unit, the number of viable cells). The bacterial culture solution was further added to each well, and the mixture was cultured at 37° C. for 18 hours. The ratio (volume ratio) between the antibacterial agent solution and the bacterial culture solution added to each well was set to 1:9 (the antibacterial agent solution:the bacterial culture solution), and the volume of the mixture of them per well was set to 100 μl in total. The final concentration of the EGCG derivative in the mixture was set to 8 μg/ml to 512 μg/ml, and the number of viable cells in the mixture was set to about 1×10^5 CFU/ml. Then, after the completion of the culture, the MIC was determined. Also, the turbidity (OD600 nm) was measured using a plate reader so as to identify minor differences.
(§3) As Comparative Example 1, the same procedures as in Example 1 were performed, except that unsubstituted EGCG was used as an antibacterial agent instead of the EGCG derivatives of Example 1. Furthermore, as a control, the same procedures as in Example 1 were performed, except that sterile distilled water, 100% DMSO, or 50% DMSO was used instead of the antibacterial agent solutions containing the EGCG derivatives.

[2] = system: methicillin-resistant Staphylococcus aureus (MRSA) ATCC43300; assay: MIC, broth microdilution (Example 1); format: cell-based; conditions: for MIC: MRSA ATCC43300, MH-broth, 37° C., 18 hours
Description: as §1, §2, §3

MSSA ATCC25923 = assay: Membrane damaging properties, SYTOX Green fluorescence (Example 4); format: cell-based, Staphylococcus aureus; conditions: for fluorescence intensity ratio of SYTOX Green (control PBS = 1): 37° C., 15 minutes, EGCG derivative 4-32, EGCG 8-128, NISIN 1-8 μg/ml, FIG. 3
Description: As an antibacterial agent, the EGCG-C16 prepared in Example 1 was used in Example 4; EGCG was used in Comparative Example 4; and membrane-damaging peptide NISIN (MP Biomedicals) was used in a reference example. Antibacterial agent solutions of EGCG-C16 and EGCG were prepared by dissolving them in DMSO so as to achieve top concentrations, respectively. An antibacterial agent solution of the other antibacterial agent was prepared by dissolving it in PBS and diluted with PBS as appropriate. The influence of DMSO used for dissolving the antibacterial agents also was considered.
MSSA ATCC25923 and MRSA ATCC43300 were subjected to shaking culture in MH-broths (Difco) until they reached a late stage in the exponential growth phase. The thus-obtained culture solutions were each centrifuged at 7000 rpm for 10 minutes, and bacterial cells that had settled were suspended in PBS. The suspension of the bacterial cells was added to wells of a 384 black plate, and each of the antibacterial agent solutions was further added thereto and mixed. The resultant mixture was incubated at 37° C. for 15 minutes. Subsequently, a dead cell-staining dye (trade name “SYTOX Green”, LONZA) was mixed in each well so that the concentration thereof became 10 μmol/l, and the resultant mixture was incubated at 37° C. for 10 minutes. […] On the other hand, as a control, the fluorescence intensity was measured in the same manner, except that PBS or 10% DMSO was added instead of the antibacterial agent solutions. Then, regarding each of the MSSA and MRSA, the ratio of the fluorescence intensity when each of the agents was added was calculated assuming that the fluorescence intensity obtained in the control (PBS) was 1.

[3] = system: Escherichia coli MG1655 (wild type); assay: MIC, influence of multidrug efflux pump (Example 5); format: cell-based
Description: (§4) Using the EGCG derivatives, the minimum inhibitory concentration (MIC) was measured in the same manner as described in Section (2) of Example 2, except that Escherichia coli MG1655 (hereinafter referred to as a wild-type strain) and gene deletion strains of Escherichia coli MG1655 were used as the bacteria. The gene deletion strains were: strains obtained by deleting the efflux pump genes, namely, acrB, acrD, and acrEF, respectively, in Escherichia coli MG1655 (ΔacrD, ΔacrEF, and ΔacrB); and a strain obtained by deleting the outer membrane protein tolC gene that couples to proteins encoded by the efflux pump genes (ΔtolC).
(§5) As Comparative Example 5, the minimum inhibitory concentration (MIC) was measured in the same manner as in Example 5, except that EGCG was used instead of the EGCG derivative.

[4] = system: Escherichia coli MG1655 ΔacrB; assay: as above; format: cell-based
Description: as §4, §5

[5] = system: Escherichia coli MG1655 ΔacrD; assay: as above; format: cell-based
Description: as §4, §5

[6] = system: Escherichia coli MG1655 ΔacrEF; assay: as above; format: cell-based
Description: as §4, §5

[7] = system: Escherichia coli MG1655 ΔtolC; assay: as above; format: cell-based
Description: as §4, §5

Q: What does the source list for `O=C(O[C@@H]1Cc2c(O)cc(O)cc2O[C@@H]1c1cc(O)c(O)c(O)c1)c1cc(O)c(O)c(O)c1` [EGCG, Epigallocatechin gallate, reference compound]?
A: MIC [1]: 128 µg/mL (≈ 279 µM); MIC [2]: 256 µg/mL (≈ 558 µM); fluorescence intensity ratio of SYTOX Green (control PBS = 1) (MSSA ATCC25923): smaller than 1; MIC [3]: >256 µg/mL; MIC [4]: 128 µg/mL (≈ 279 µM); MIC [5]: >256 µg/mL; MIC [6]: >256 µg/mL; MIC [7]: 128 µg/mL (≈ 279 µM)

Q: EGCG-stearate [EGCG-C18] was tested. Which MIC [1] did it give?
A: The MIC was 16 µg/mL.

Q: What about the MIC [2] of the same molecule?
A: The MIC was 32 µg/mL.

Q: What does the source list for EGCG-palmitate [EGCG-C16]?
A: MIC [1]: 8 µg/mL; MIC [2]: 8 µg/mL; inhibition of propagation (MIC, turbidity OD600 nm) ([2]; MRSA, FIG. 1 and Table 3): remarkable propagation-inhibiting effect; fluorescence intensity ratio of SYTOX Green (control PBS = 1) (MSSA ATCC25923): very high fluorescence intensity ratio; cell membrane-damaging action at high concentration (SYTOX Green) (MSSA ATCC25923; EGCG-C16 at 64 μg/ml): tendency for this action of EGCG-C16 to become weak; MIC [3]: >128 µg/mL; MIC [4]: 64 µg/mL; MIC [5]: >128 µg/mL; MIC [6]: >128 µg/mL; MIC [7]: 64 µg/mL

Q: EGCG-dioctanoate [EGCG-C8×2] was tested. Which MIC [3] did it give?
A: Its MIC is over 128 µg/mL.

Q: What about the MIC [4] of the same molecule?
A: Its MIC is 64 µg/mL.

Q: What about the MIC [5] of the same molecule?
A: Its MIC is over 128 µg/mL.

Q: What about the MIC [6] of the same molecule?
A: Its MIC is over 128 µg/mL.

Q: And the MIC [7]?
A: Its MIC is 32 µg/mL.

Q: Which MIC [3] does the source give for EGCG-α-linoleate [EGCG-C18TE] here?
A: The MIC was over 128 µg/mL.

Q: What about the MIC [4] of the same molecule?
A: Its MIC is 64 µg/mL.

Q: What about the MIC [5] of the same molecule?
A: Its MIC is over 128 µg/mL.

Q: What about the MIC [6] of the same molecule?
A: The MIC was over 128 µg/mL.

Q: What about the MIC [7] of the same molecule?
A: The MIC was 64 µg/mL.

Q: With EGCG-palmitoleate [EGCG-C16E] as the molecule, how does the MIC [3] read?
A: Its MIC is over 128 µg/mL.

Q: And the MIC [4]?
A: The MIC was 64 µg/mL.

Q: What about the MIC [5] of the same molecule?
A: The MIC was over 128 µg/mL.

Q: What about the MIC [6] of the same molecule?
A: Its MIC is over 128 µg/mL.

Q: And the MIC [7]?
A: Its MIC is 64 µg/mL.
